* marks the point of attachment. Myristoyl = CCCCCCCCCCCCCC(=O)*

This test relates to T1, TRPA1.
T1 construct: percentage of cells responsive to CA; other: shortened CPP 2 μM; CA 10 μM; HEK293 TRPA1+TRPV1; vs scrambled; percentage of cells responsive to MO; other: peptide 200 nM pre-treatment; 500 nM MO; HEK293T TRPA1+TRPV1; percentage of cells that respond to 100 nM MO and 10 μM CA; other: HEK293T TRPA1+TRPV1, Tmem100-3Q-transfected vs lacki; reduction in the percentage of cells responding to MO
Put plainly: Calcium imaging of HEK293T cells expressing TRPA1 and TRPV1 (MO or CA). The format is cell-based. How it is done:
Calcium imaging assays were performed as previously described (Liu et al., 2009). Cells were loaded with 2 μM fura 2-acetomethoxy ester (Molecular Probes) for 30 min in the dark at room temperature or for 45 minutes at 37° C. for DRG and cell lines, respectively. After washing, cells were imaged at 340 and 380 nm excitation to detect intracellular free calcium under a fluorescent microscope (Nikon Eclipse TE2000-S) and Lambda 10B shutter (Sutter Instrument). The cells were bathed in calcium imaging buffer (pH 7.45, 130 mM NaCl, 3 mM KCl, 2.5 mM CaCl2, 10 mM HEPES, 10 mM glucose, 1.2 mM NaHCO3, with sucrose to increase osmolarity to 290 mOsm). The reagents and buffers were applied through a gravity perfusion system at a rate of […], including mustard oil (Sigma 377430), cinnamaldehyde (Sigma C80687), menthol (Sigma M2780), and capsaicin (Sigma M2028). Cells with high baseline 340/380 values (>1.5) were excluded for analysis. For DRG neurons, IB4 staining was performed in the chamber with the dilution of 1:200 (Molecular Probes 121412) for 160 seconds before washing off at the end of each test. Images were processed and analyzed with NIS-Elements BR 2.30 software (Nikon). A responsive cell was defined as one that with greater than a 20% increase in the 340/380 ratio above the baseline. Intracellular calibration for calcium was performed as previously described (Akopian et al., 2007). The data was analyzed with the experimenter blinded to the genotypes or constructs transfected.
DRG from 3 to 4-week old mice were collected in cold DH10 medium (90% DMEM/F-12, 10% FBS, 100 U/ml penicillin, and 100 μg/ml Streptomycin, Gibco) and treated with enzyme solution in HBSS containing collagenase (1.65 mg/mL, Worthington CLS I) and dispase (3.55 mg/mL, GIBCO 17105-041) at 37° C. for 30 minutes. After trituration and centrifugation, cells were resuspended in DH10, plated on glass coverslips coated with poly-D-lysine (0.5 mg/ml, Stoughton, Mass.) and laminin (10 μg/ml, Invitrogen), and cultured overnight in an incubator at 37° C. The neurons were tested within 24 hours. HEK293T, COS-7, and CHO cells were cultured in a medium consisting of 90% DMEM, 10% FBS, 100 U/mL penicillin, and 100 μg/ml Streptomycin. GlutaMAX (Gibco 35050-061) was also added for CHO cells. For calcium imaging, the cells were plated on glass coverslips coated with poly-D-lysine (0.5 mg/ml, Stoughton, Mass.). In the HEK cell studies the denominator is the cells expressing both TRPA1, TRPV1, and the designated constructs (i.e. Tmem100 or Tmem100-3Q mutant). mCherry:TRPV1:Tmem100 was transfected in 1:8:8 ratio into TRPA1 stable cell line (obtained from N. Tigue from GlaxoSmithKline) and used mCherry as the marker for the cells expressing the constructs 18 hours after transfection with Lipofectamine 2000. The transfection efficiency for Tmem100+TRPV1+TRPA1 triple-positive cells is 27±3%. This efficiency was determined by mCherry(+) divided by total number of cells in the bright fields.
The sequence from the last 28 amino acids of the C-terminus of the Tmem100-3Q mutant protein was synthesized and myristoylated at its N-terminus (myr-[…]-COOH) (SEQ ID NO: 8) by Twentyfirst Century Biochemicals. […] For the calcium imaging assay, the peptides were added to the calcium imaging buffer with a final concentration of 200 nM and incubated for at least […] at room temperature. For the mice behavioral assays, the peptides (5 μL, 2 mM) were injected subcutaneously in the hindpaw at least 30 minutes before testing. For the rat behavior assays, human T100-3Q (h-T100), a palmitoylated cell permeable peptide mutated based on the C terminus of human sequence in Tmem100, was applied. The sequence is Palmitoyl-[…]-COOH (SEQ ID NO: 7).

Consider “myr-QRVLEQVLQNWSRRANVKQAQKFQVKCT-COOH (Myristoyl-QRVLEQVLQNWSRRANVKQAQKFQVKCT-OH; SMILES CCCCCCCCCCCCCC(=O)N[C@@H](CCC(N)=O)C(=O)N[C@@H](CCCNC(=N)N)C(=O)N[C@H](C(=O)N[C@@H](CC(C)C)C(=O)N[C@@H](CCC(=O)O)C(=O)N[C@@H](CCC(N)=O)C(=O)N[C@H](C(=O)N[C@@H](CC(C)C)C(=O)N[C@@H](CCC(N)=O)C(=O)N[C@@H](CC(N)=O)C(=O)N[C@@H](Cc1c[nH]c2ccccc12)C(=O)N[C@@H](CO)C(=O)N[C@@H](CCCNC(=N)N)C(=O)N[C@@H](CCCNC(=N)N)C(=O)N[C@@H](C)C(=O)N[C@@H](CC(N)=O)C(=O)N[C@H](C(=O)N[C@@H](CCCCN)C(=O)N[C@@H](CCC(N)=O)C(=O)N[C@@H](C)C(=O)N[C@@H](CCC(N)=O)C(=O)N[C@@H](CCCCN)C(=O)N[C@@H](Cc1ccccc1)C(=O)N[C@@H](CCC(N)=O)C(=O)N[C@H](C(=O)N[C@@H](CCCCN)C(=O)N[C@@H](CS)C(=O)N[C@H](C(=O)O)[C@@H](C)O)C(C)C)C(C)C)C(C)C)C(C)C) [scrambled]”, for which the “percentage of cells responsive to MO” value (peptide 200 nM pre-treatment, 500 nM MO, HEK293T TRPA1+TRPV1) is on record as 18±2.8%.

B1: Tmem100-3Q mutant (full-length, mouse) (protein)
chain: MTEESTKENLGAPKSPTPVTMEKNPKREVVVTTGPLVSEVQLMAATGGAELSCYRCIIPFAVVVFITGIVVTAVAYSFNSHGSIISIFGLVLLSSGLFLLASSALCWKVRQRNKKVQQQESQTALVVNQRCLFA
On to B1, for which the “percentage of cells that respond to 100 nM MO and 10 μM CA” value (HEK293T TRPA1+TRPV1, Tmem100-3Q-transfected vs lacking Tmem100-3Q) was “significantly lower”.

(Values after patent US11066455B2, “Tmem100 peptides and variants thereof and their use in treating or preventing diseases or conditions” (The Johns Hopkins University, priority 2014, dated 2021).)
